Assay results from patent US10500217B2 (LESLIE RAY MATTHEWS, M.D., LLC, priority 2018, dated 2019).

Test system: Glial cells (DBTRG-05MG; CRL-2020)
Test: Lactate dehydrogenase (LDH) cell death assay: percentage cell survival of glia cells with or without H2O2 exposure
Assay type: cell-based, human
Conditions: for Percentage Cell Survival (% ± SD), H202 Given Last (30 min before H202 given/pre-treatment) / Percentage Cell Survival (% ± SD), H202 (added 30 min after): H2O2 0.25M about 30 min after treatment; for Percentage Cell Survival (% ± SD), H202 Given 1st (30 min after H202 Given, mimics acute injury) / Percentage Cell Survival (% ± SD), H202 (added 30 min before): H2O2 0.25M about 30 min before treatment; for Percentage Cell Survival (% ± SD), Control: control (PBS) instead of H2O2; for Percentage Cell Survival (% ± SD), H202 given (30 min after treatment with Vitamin D) / Percentage Cell Survival (% ± SD), H202 Given (30 min before treatment with Vitamin D) / Percentage Cell Survival (% ± SD), Control (PBS): Table 3; for Percentage Cell Survival (% ± SD), H202 given (30 min after treatment with Vitamin D): H2O2 0.25M 30 min after treatment; for Percentage Cell Survival (% ± SD), H202 Given (30 min before treatment with Vitamin D): H2O2 0.25M 30 min before treatment; for Percentage Cell Survival (% ± SD), Control (PBS): no H2O2
Procedure: Glial cells were purchased from ATCC (DBTRG-05MG; CRL-2020) and were derived from the brain of a […] with glioblastoma. […] Glial cells were subcultured at a ratio of about 1:4 every 2 to 3 days. Cell death was measured by the CytoTox 96 Non-Radioactive Cytotoxicity Assay according to the manufacturer's instructions (Promega, Madison, Wis.). Culture medium (500 μl) was recovered from and incubated for about 30 min in the dark with a buffer containing NAD+, lactate, and tetrazolium. Lactate Dehydrogenase (LDH) converts lactate to pyruvate, generating NADH which reduces tetrazolium (yellow) to formazan (red), which is detected by […] (490 nm). LDH release, a marker for cell death, was expressed as a percentage of the LDH in the medium over the total LDH. Data was analyzed using a two-tailed t-test after applying ANOVA to the data. Differences were considered significant when p<0.01. Glia cells (10^6 cells) were plated in triplicates in 6-well plates. […] Percentage cell survival was calculated about 24 hours later using LDH assay. […] Glia cells (10^6 cells) were plated in triplicates in 6-well plates. […] Percentage cell survival was calculated about 24 hours later using LDH assay. […] Glia cells (10^6 cells) were plated in triplicates in 6-well plates. […] Percentage cell survival was calculated about 24 hours later using LDH assay.

[1] = Table 1, survival about 24 h later, 3 experiments
[2] = Table 2, Vitamin D3 (1/5), Hsp72 (1/5), Glutathione 200 mg/ml, 24 h, 4 experiments

Row | Compound | Percentage Cell Survival (% ± SD), H202 Given Last (30 min before H202 given/pre-treatment) [1] [%] | Percentage Cell Survival (% ± SD), H202 Given 1st (30 min after H202 Given, mimics acute injury) [1] [%] | Percentage Cell Survival (% ± SD), Control [1] [%] | Percentage Cell Survival (% ± SD), H202 (added 30 min after) [2] [%] | Percentage Cell Survival (% ± SD), H202 (added 30 min before) [2] [%] | Percentage Cell Survival (% ± SD), Control [2] [%] | Percentage Cell Survival (% ± SD), H202 given (30 min after treatment with Vitamin D) (Vitamin D3 5 ng/m1, 24 h) [%] | Percentage Cell Survival (% ± SD), H202 Given (30 min before treatment with Vitamin D) (Vitamin D3 5 ng/m1, 24 h) [%] | Percentage Cell Survival (% ± SD), Control (PBS) (Vitamin D3 5 ng/m1, 24 h) [%] | Percentage Cell Survival (% ± SD), H202 given (30 min after treatment with Vitamin D) (Vitamin D3 25 ng/m1, 24 h) [%] | Percentage Cell Survival (% ± SD), H202 Given (30 min before treatment with Vitamin D) (Vitamin D3 25 ng/m1, 24 h) [%] | Percentage Cell Survival (% ± SD), Control (PBS) (Vitamin D3 25 ng/m1, 24 h) [%] | Percentage Cell Survival (% ± SD), H202 given (30 min after treatment with Vitamin D) (Vitamin D3 50 ng/m1, 24 h) [%] | Percentage Cell Survival (% ± SD), H202 Given (30 min before treatment with Vitamin D) (Vitamin D3 50 ng/m1, 24 h) [%] | Percentage Cell Survival (% ± SD), Control (PBS) (Vitamin D3 50 ng/m1, 24 h) [%] | Percentage Cell Survival (% ± SD), H202 Given (30 min before treatment with Vitamin D) (Vitamin D3 75 ng/m1, 24 h) [%] | Percentage Cell Survival (% ± SD), Control (PBS) (Vitamin D3 75 ng/m1, 24 h) [%] | Percentage Cell Survival (% ± SD), H202 given (30 min after treatment with Vitamin D) (Vitamin D3 100 ng/m1, 24 h) [%] | Percentage Cell Survival (% ± SD), H202 Given (30 min before treatment with Vitamin D) (Vitamin D3 100 ng/m1, 24 h) [%] | Percentage Cell Survival (% ± SD), Control (PBS) (Vitamin D3 100 ng/m1, 24 h) [%]
1 | C=C1CC[C@H](O)C/C1=C/C=C1\CCC[C@]2(C)[C@@H]([C@H](C)CCCC(C)C)CC[C@@H]12 [Vitamin D3, Cholecalciferol] | 28.56 ± 8.9 | 15.27 ± 7.4 | 94.64 ± 4.6 | 12.68 ± 3.5 | 10.36 ± 2.3 | 97.28 ± 4.3 | 9.75 ± 3.6 | 6.22 ± 2.8 | 96.89 ± 4.5 | 13.09 ± 2.9 | 10.18 ± 2.2 | 98.56 ± 7.9 | 28.56 ± 3.9 | 15.27 ± 4.4 | 91.18 ± 6.8 | 22.94 ± 3.8 | 95.82 ± 6.2 | 60.11 ± 7.2 | 28.99 ± 6.9 | 97.41 ± 8.4
2 | Hsp72: Endotoxin-free recombinant Hsp72 produced using the baculovirus expression vector system and expressed in insect cells | 48.54 ± 6.3 | 31.85 ± 9.2 | 96.88 ± 3.8 | 32.68 ± 7.5 | 21.57 ± 5.4 | 95.48 ± 5.1 | – | – | – | – | – | – | – | – | – | – | – | – | – | –
